According to patent US20250282785A1, “PYRROLIDINONE DERIVATIVES AS INHIBITORS OF NF KAPPA B INDUCING KINASE” (priority 2022, published 2025):

Experiments:
[1] = molecular target: Recombinant Human NF-Kappab-Inducing Kinase (NIK/MAP3K14) (Homo sapiens, UniProt Q99558); assay: Inhibition of auto-phosphorylation of recombinant human NIK/MAP3K14 (AlphaScreen); format: biochemical; settings: NIK/MAP3K14 auto-phosphorylation, 5 microM ATP, 1 nM enzyme, 2 h at 25° C.; average of values; read-out: Assay 1 IC50
Summary of the method: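 AlphaScreen read-out used anti-phospho-IKK Ser176/180 antibody after 2 h, 25 °C incubation of compound, 1 nM GST-NIK and 5 µM ATP (final DMSO 0.7%). Percent inhibition referenced to high (enzyme) and low (no enzyme, no ATP) controls; sigmoidal curve fitting gave IC50.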

[2] = test system: p-IKKα levels in L363 (NIK translocated multiple myeloma) cells; assay: Effect of compounds on p-IKKα levels in L363 cells (AlphaLISA SureFire Ultra); format: cell-based; settings: Homo sapiens, L-363; L363 cells, BAFF stimulated, MG132, 6 h; average of values; read-out: Assay 2 IC50
Summary of the method: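 Phospho-IKKα (Ser 176/180) was quantified by AlphaLISA in lysed L363 cells after 6 h compound exposure (0.3% DMSO, 11 points, 1:3) alongside 250 ng/ml BAFF and 10 uM MG132, following overnight BAFF priming in low-serum DMEM. Duplicate curves were scaled between BAFF/DMSO/MG132 and unstimulated DMSO wells, then fitted sigmoidally for IC50.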

Recombinant Human NF-Kappab-Inducing Kinase (NIK/MAP3K14), sequence (Q99558 whole entry): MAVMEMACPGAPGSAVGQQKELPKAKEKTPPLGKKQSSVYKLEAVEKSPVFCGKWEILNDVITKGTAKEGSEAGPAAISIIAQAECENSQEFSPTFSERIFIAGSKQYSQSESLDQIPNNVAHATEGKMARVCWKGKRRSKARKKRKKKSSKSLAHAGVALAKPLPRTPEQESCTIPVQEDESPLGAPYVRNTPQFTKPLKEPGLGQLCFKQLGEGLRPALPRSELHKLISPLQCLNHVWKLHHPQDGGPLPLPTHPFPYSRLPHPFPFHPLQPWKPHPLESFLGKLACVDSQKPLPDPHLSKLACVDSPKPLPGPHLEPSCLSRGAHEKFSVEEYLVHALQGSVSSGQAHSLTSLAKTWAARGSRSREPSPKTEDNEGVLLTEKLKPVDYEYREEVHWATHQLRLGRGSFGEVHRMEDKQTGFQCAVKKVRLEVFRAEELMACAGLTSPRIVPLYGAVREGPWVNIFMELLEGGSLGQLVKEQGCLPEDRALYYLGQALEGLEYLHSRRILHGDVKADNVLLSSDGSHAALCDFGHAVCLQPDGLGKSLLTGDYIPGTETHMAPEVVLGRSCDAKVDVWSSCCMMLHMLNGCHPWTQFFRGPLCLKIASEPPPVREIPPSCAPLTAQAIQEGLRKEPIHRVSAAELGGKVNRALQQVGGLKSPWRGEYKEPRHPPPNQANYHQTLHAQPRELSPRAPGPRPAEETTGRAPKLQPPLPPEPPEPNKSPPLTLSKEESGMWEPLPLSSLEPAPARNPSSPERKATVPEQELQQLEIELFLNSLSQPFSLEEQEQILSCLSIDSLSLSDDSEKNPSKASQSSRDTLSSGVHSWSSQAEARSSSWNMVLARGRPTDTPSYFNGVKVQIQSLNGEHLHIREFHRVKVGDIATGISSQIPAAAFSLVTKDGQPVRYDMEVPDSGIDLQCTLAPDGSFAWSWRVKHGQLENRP

Structure (SMILES)	IC50 [1] [nM]	IC50 [2] [nM]
CN1CC[C@](O)(c2cc(-c3cccc(-c4cccc(C(N)=O)n4)c3)no2)C1=O [Example 149, (S)-6-(3-(5-(3-Hydroxy-1-methyl-2-oxopyrrolidin-3-yl)isoxazol-3-yl)phenyl)picolinamide]	> 501	> 501
Cc1ccc(-c2cccc(C(N)=O)n2)cc1-c1cc([C@]2(O)CCN(C)C2=O)on1 [Example 150, (R)-6-(3-(5-(3-Hydroxy-1-methyl-2-oxopyrrolidin-3-yl)isoxazol-3-yl)-4-methylphenyl)picolinamide]	> 501	> 501
Cc1ccc(-c2cc([C@]3(O)CCN(C)C3=O)on2)cc1-c1cccc(C(N)=O)n1 [Example 151, (R)-6-(5-(5-(3-Hydroxy-1-methyl-2-oxopyrrolidin-3-yl)isoxazol-3-yl)-2-methylphenyl)picolinamide]	> 501	> 501
Cc1cc(-c2cc([C@]3(O)CCN(C)C3=O)on2)cc(-c2cccc(C(N)=O)n2)c1 [Example 152, (R)-6-(3-(5-(3-Hydroxy-1-methyl-2-oxopyrrolidin-3-yl)isoxazol-3-yl)-5-methylphenyl)picolinamide]	< 100	> 501
COc1cc(-c2cc([C@]3(O)CCN(C)C3=O)on2)cc(-c2cccc(C(N)=O)n2)c1 [Example 153, (R)-6-(3-(5-(3-Hydroxy-1-methyl-2-oxopyrrolidin-3-yl)isoxazol-3-yl)-5-methoxyphenyl)picolinamide]	< 100	> 501
Cc1ccc(-c2cccc(-c3cc([C@]4(O)CCN(C)C4=O)on3)c2)nc1C(N)=O [Example 154, (R)-6-(3-(5-(3-Hydroxy-1-methyl-2-oxopyrrolidin-3-yl)isoxazol-3-yl)phenyl)-3-methylpicolinamide]	< 100	> 501
Cc1cc(C(N)=O)nc(-c2cccc(-c3cc([C@]4(O)CCN(C)C4=O)on3)c2)c1 [Example 155, (R)-6-(3-(5-(3-Hydroxy-1-methyl-2-oxopyrrolidin-3-yl)isoxazol-3-yl)phenyl)-4-methylpicolinamide]	< 100	100 to 500
Cc1ccc(C(N)=O)nc1-c1cccc(-c2cc([C@]3(O)CCN(C)C3=O)on2)c1 [Example 156, (R)-6-(3-(5-(3-hydroxy-1-methyl-2-oxopyrrolidin-3-yl)isoxazol-3-yl)phenyl)-5-methylpicolinamide]	100 to 500	> 501
CN1CC[C@@](O)(c2cc(-c3cccc(-c4cccc(C(N)=O)c4)c3)no2)C1=O [Example 157, (R)-3′-(5-(3-Hydroxy-1-methyl-2-oxopyrrolidin-3-yl)isoxazol-3-yl)-[1,1′-biphenyl]-3-carboxamide]	> 501	> 501
CN1CC[C@@](O)(c2cc(-c3cccc(-c4nc(C(N)=O)c5ccc(F)cc5n4)c3)no2)C1=O [Example 158, (R)-7-Fluoro-2-(3-(5-(3-hydroxy-1-methyl-2-oxopyrrolidin-3-yl)isoxazol-3-yl)phenyl)quinazoline-4-carboxamide]	< 100	> 501
Cc1nc(N)c2nc(-c3ccc(-c4cc([C@]5(O)CCN(C)C5=O)on4)o3)ccc2n1 [Example 159, (R)-3-(3-(5-(4-Amino-2-methylpyrido[3,2-d]pyrimidin-6-yl)furan-2-yl)isoxazol-5-yl)-3-hydroxy-1-methylpyrrolidin-2-one]	< 100	100 to 500
CN1CC[C@@](O)(c2cc(-c3cccc(-c4nc(C(N)=O)c5ccc(F)cc5n4)c3)on2)C1=O [Example 160, (R)-7-Fluoro-2-(3-(3-(3-hydroxy-1-methyl-2-oxopyrrolidin-3-yl)isoxazol-5-yl)phenyl)quinazoline-4-carboxamide]	< 100	> 501
CN1CC[C@@](O)(c2cc(-c3cccc(-c4ccnc(C(N)=O)n4)c3)no2)C1=O [Example 162, (R)-4-(3-(5-(3-Hydroxy-1-methyl-2-oxopyrrolidin-3-yl)isoxazol-3-yl)phenyl)pyrimidine-2-carboxamide]	< 100	> 501
CN1CC[C@@](O)(c2cc(-c3cccc(-c4c[nH]c5nccnc45)c3)no2)C1=O [Example 163, (R)-3-(3-(3-(5H-Pyrrolo[2,3-b]pyrazin-7-yl)phenyl)isoxazol-5-yl)-3-hydroxy-1-methylpyrrolidin-2-one]	< 100	> 501
CN1CC[C@@](O)(c2cc(-c3ccc(-c4cccc(C(N)=O)n4)o3)no2)C1=O [Example 164, (R)-6-(5-(5-(3-Hydroxy-1-methyl-2-oxopyrrolidin-3-yl)isoxazol-3-yl)furan-2-yl)picolinamide]	< 100	> 501
CN1CC[C@@](O)(c2cc(-c3cccc(-n4nc(C(N)=O)c5ccccc54)c3)no2)C1=O [Example 166, (R)-1-(3-(5-(3-hydroxy-1-methyl-2-oxopyrrolidin-3-yl)isoxazol-3-yl)phenyl)-1H-indazole-3-carboxamide]	< 100	100 to 500
CN1CC[C@@](O)(c2cc(-c3ccnc(-c4cccc(C(N)=O)n4)c3)no2)C1=O [Example 168, (R)-4′-(5-(3-Hydroxy-1-methyl-2-oxopyrrolidin-3-yl)isoxazol-3-yl)-[2,2′-bipyridine]-6-carboxamide]	< 100	> 501
CN1CC[C@@](O)(c2cc(-c3ccnc(-c4ccc(N)c(C(N)=O)n4)c3)no2)C1=O [Example 169, (R)-5-Amino-4′-(5-(3-hydroxy-1-methyl-2-oxopyrrolidin-3-yl)isoxazol-3-yl)-[2,2′-bipyridine]-6-carboxamide]	< 100	< 100
Cc1nc(N)c2nc(-c3cc(-c4cc([C@]5(O)CCN(C)C5=O)on4)ccn3)ccc2n1 [Example 170, (R)-3-(3-(2-(4-Amino-2-methylpyrido[3,2-d]pyrimidin-6-yl)pyridin-4-yl)isoxazol-5-yl)-3-hydroxy-1-methylpyrrolidin-2-one]	< 100	> 501
CN1CC[C@@](O)(c2cc(-c3cccc(-c4nc5c(c(C(N)=O)n4)[C@H]4CC[C@@H](C5)O4)c3)no2)C1=O [Example 171, (5R,8S)-2-(3-(5-((R)-3-Hydroxy-1-methyl-2-oxopyrrolidin-3-yl)isoxazol-3-yl)phenyl)-6,7,8,9-tetrahydro-5H-5,8-epoxycyclohepta[d]pyrimidine-4-carboxamide]	< 100	> 501
CN1CC[C@](O)(c2cc(-c3cccc(-c4nc5c(c(C(N)=O)n4)[C@H]4CC[C@@H](C5)O4)c3)no2)C1=O [Example 172, (5R,8S)-2-(3-(5-((S)-3-Hydroxy-1-methyl-2-oxopyrrolidin-3-yl)isoxazol-3-yl)phenyl)-6,7,8,9-tetrahydro-5H-5,8-epoxycyclohepta[d]pyrimidine-4-carboxamide]	> 501	> 501
CN1CC[C@@](O)(c2cc(-c3cccc(-c4nc5c(c(C(N)=O)n4)[C@H]4CC[C@@H](C5)O4)c3)[nH]n2)C1=O [Example 173, (5R,8S)-2-(3-(5-((R)-3-Hydroxy-1-methyl-2-oxopyrrolidin-3-yl)-1H-pyrazol-3-yl)phenyl)-6,7,8,9-tetrahydro-5H-5,8-epoxycyclohepta[d]pyrimidine-4-carboxamide]	< 100	> 501
Cc1ccc(-c2cc([C@]3(O)CCN(C)C3=O)no2)cc1-c1nc2c(N)ncnc2s1 [Example 175, (R)-3-(5-(3-(7-Aminothiazolo[5,4-d]pyrimidin-2-yl)-4-methylphenyl)isoxazol-3-yl)-3-hydroxy-1-methylpyrrolidin-2-one]	< 100	> 501
[2H]C1([2H])N(C)C(=O)[C@](O)(c2cc(-c3cccc(-c4cc(C5CC5)c(N)c(C(N)=O)n4)c3)no2)C1([2H])[2H] [Example 177, (R)-3-Amino-4-cyclopropyl-6-(3-(5-(3-hydroxy-1-methyl-2-oxopyrrolidin-3-yl-4,4,5,5-d4)isoxazol-3-yl)phenyl)picolinamide]	< 100	< 100
CN1C(=O)[C@](O)(c2cc(-c3cccc(-c4cc(C5CC5)c(N)c(C(N)=O)n4)c3)no2)C[C@H]1C(F)(F)F [Example 178, 3-Amino-4-cyclopropyl-6-(3-(5-((3R,5S)-3-hydroxy-1-methyl-2-oxo-5-(trifluoromethyl)pyrrolidin-3-yl)isoxazol-3-yl)phenyl)picolinamide]	< 100	> 501
[2H]C([2H])([2H])N1CC[C@@](O)(c2cc(-c3cccc(-c4cc(C5CC5)c(N)c(C(N)=O)n4)c3)no2)C1=O [Example 179, (R)-3-Amino-4-cyclopropyl-6-(3-(5-(3-hydroxy-1-(methyl-d3)-2-oxopyrrolidin-3-yl)isoxazol-3-yl)phenyl)picolinamide]	< 100	< 100
[2H]C1([2H])N(C)C(=O)[C@](O)(c2cc(-c3cccc(-c4nc(C(N)=O)n5c4CCCC5)c3)no2)C1([2H])[2H] [Example 180, (R)-1-(3-(5-(3-Hydroxy-1-methyl-2-oxopyrrolidin-3-yl-4,4,5,5-d4)isoxazol-3-yl)phenyl)-5,6,7,8-tetrahydroimidazo[1,5-a]pyridine-3-carboxamide]	< 100	100 to 500
[2H]C([2H])([2H])N1CC[C@@](O)(c2cc(-c3cccc(-c4nc(C(N)=O)n5c4CCCC5)c3)no2)C1=O [Example 181, (R)-1-(3-(5-(3-Hydroxy-1-(methyl-d3)-2-oxopyrrolidin-3-yl)isoxazol-3-yl)phenyl)-5,6,7,8-tetrahydroimidazo[1,5-a]pyridine-3-carboxamide]	< 100	100 to 500
